Key:
[1] = system: murine myofibroblasts isolated from wild type mice; assay: DNA synthesis ([3H] thymidine incorporation) in murine hepatic myofibroblasts from wild type mice stimulated with PDGF-BB; type: cell-based, mouse; conditions: 20 ng/ml PDGF-BB, 30 h
Protocol: (§1) FIG. 3: Plots showing the effect of increasing amounts of CB1 antagonist SR141716 on DNA synthesis in human hepatic myofibroblast (panel A) and on wild type mice (shown as WT) and CB1 deficient mice (shown as CB1KO) (panel B). The DNA synthesis is expressed as a percentage of DNA synthesis in cells treated with the vehicle of SR 141716 and plotted against increasing concentrations of SR 141716 in nM. Human hepatic myofibroblast cells were stimulated for 30 h with varying concentrations of the CB1 receptor antagonist SR 141716, in the presence of 20 ng/ml of PDGF-BB [^3H] […] Error bars are shown on the plot. […] Thymidine incorporation into DNA was measured as mean±SEM, from 3-6 experiments obtained from cells isolated from livers of 3 WT and 3 CB1 -/- mice and are expressed as percent of control. […]
(§2) DNA synthesis was measured in triplicate wells by incorporation of [3H] thymidine, as previously described (Tao, J., et al., J Biol Chem, 1999. 274(34): p. 23761-23769). […]
(§3) The cell culture was performed as described in example 1 herein. Cell culture of both human and mouse hepatic myofibroblasts were exposed to increasing doses of CB1 receptor antagonist SR141716 and the DNA synthesis of hepatic myofibroblasts was measured.

[2] = system: CB1-/- cells (mouse hepatic myofibroblasts); assay: DNA synthesis ([3H] thymidine incorporation) in hepatic myofibroblasts from CB1-/- mice stimulated with PDGF-BB; type: cell-based; conditions: 20 ng/ml PDGF-BB, 30 h
Protocol: as §1, §2, §3

CD1 mice = assay: Mortality induced by chronic carbon tetrachloride intoxication (experimental model of liver fibrosis) in mice; type: in vivo; conditions: 10 mg/kg daily intraperitoneal
Text: FIG. 4: Plot showing the effect of SR141716 or its vehicle on the mortality induced by carbon tetrachloride in mice. The survival rate of mice treated with CC14 either with SR141716 (dotted lines) or with no treatment (solid lines showing the administration of vehicle only without CB1 antagonist) is shown against time in days. Time of administration of CC14 is shown by the arrow.
The antifibrogenic potential of the CB1 antagonist SR 141716 in an experimental model of liver fibrosis, induced by chronic intoxication with carbon tetrachloride was evaluated.
SR 141716 (10 mg/kg body weight) was dissolved freshly before use, in a vehicle solution (2 drops of Tween 80 in 10 ml of PBS containing 10% dimethylsulfoxide and 5% ethanol) and sonicated.
CD1 mice were obtained from Janvier (France). All experiments were performed using accepted ethical guidelines. 36 males, aged 10-12 weeks, were used and animals were divided into the following groups: vehicle-treated, olive oil group (n=3); vehicle-treated, CC14 group (n=14); SR 141716-treated olive oil group (n=3); SR 141716A-treated, CC14 group (n=16). Animals were housed in temperature and humidity controlled rooms, kept on a 12-h light/dark cycle and provided unrestricted amounts of food and water, unless otherwise specified. […]

[3] = system: human hepatic myofibroblasts; assay: DNA synthesis ([3H] thymidine incorporation) in human hepatic myofibroblasts stimulated with PDGF-BB; type: cell-based; conditions: 20 ng/ml PDGF-BB, 30 h, read-out: half maximal inhibition of DNA synthesis elicited by PDGF-BB
Protocol: as §1, §2, §3

Cc1c(C(=O)NN2CCCCC2)nn(-c2ccc(Cl)cc2Cl)c1-c1ccc(Cl)cc1 [SR141716, N-piperidino-5-(4-chlorophenyl)-1-(2,4-dichlorophenyl)-4-methylpyrazole-3-carboxamide]
DNA synthesis elicited by PDGF-BB [1]: inhibited
proliferation (DNA synthesis elicited by PDGF-BB) [2]: only marginally affected
survival rate at one month (CD1 mice; CC14 0.5 ml/kg IP twice a week for one month, started 7 days before CC14): 83%
deaths in sham animals (CD1 mice; olive oil (sham) mice): no deaths
IC50 [3]: 300 to 400 nM
